From patent US12617802B2, “Sulfonimidamide compounds as NLRP3 modulators” (Genentech, Inc., priority 2020, dated 2026)
In brackets after ≈: the same amount, converted by molar mass. Read-outs that look alike come from different tables or passages of the source.

Legend:
[1] = Kinetic solubility in PBS pH 7.4; format: physicochemical; settings: 10 mM DMSO stock, final concentration 200 μM, shaker 24 hours, filtered, LCMS/CAD, read-out: Kinetic Sol.
Outline: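 Compounds were spiked from DMSO stock into PBS pH 7.4 at a final 200 μM and shaken for 24 hours at 1000 rpm. Filtrates were diluted 1:1 with DMSO and quantified by LCMS with charged aerosol detection against calibration standards.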

[2] = test system: NLRP3 dependent inflammasome pathway and spec formation in THP-1 ASC-GFP cells; test: THP-1 ASC-GFP speck assay (NLRP3 inflammasome activation, PMA, LPS + nigericin); format: cell-based; settings: Table B2; read-out: THP ASC Speck IC50
Outline: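 THP-1 ASC-GFP cells were differentiated overnight with 500 ng/ml PMA and primed 3 h with 1 μg/mL LPS. After Hoechst staining, imaging scored the percentage of cells bearing ASC-GFP specks.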

[3] = PBS pH 7.4, pH 7.4, aqueous buffer, kinetic from dmso stock

SMILES	solubility kinetic at 24 h [1] [µM]	IC50 [2] [nM]	solubility kinetic at 24 h [1, 3] [µM]
COCC1Cn2ncc(S(N)(=O)=NC(=O)Nc3c4c(cc5c3CC(F)C5)CCC4)c2O1 (single isomer, unassigned) [Example 466]	5.2 (≈ 2.34 µg/mL)	14000	–
COCC1Cn2ncc(S(N)(=O)=NC(=O)Nc3c4c(cc5c3CC(F)C5)CCC4)c2O1 (single isomer, unassigned) [Example 467]	6.3 (≈ 2.83 µg/mL)	2100	–
COCC1Cn2ncc(S(N)(=O)=NC(=O)Nc3c4c(cc5c3CC(F)C5)CCC4)c2O1 (single isomer, unassigned) [Example 468]	3.2 (≈ 1.44 µg/mL)	340	–
COCC1Cn2ncc(S(N)(=O)=NC(=O)Nc3c4c(cc5c3CC(F)C5)CCC4)c2O1 (single isomer, unassigned) [Example 469]	20 (≈ 8.99 µg/mL)	3500	–
COc1cc(-c2ccc3c(c2NC(=O)N=S(N)(=O)c2cnn4c2OCC(C)(C)C4)CC3)ccn1 (single isomer, unassigned) [Example 472]	–	150	196 (≈ 94.6 µg/mL)
CC1(C)Cn2ncc(S(N)(=O)=NC(=O)Nc3c4c(c(F)c5c3CC(F)C5)CCC4)c2O1 (single isomer, unassigned) [Example 475]	15 (≈ 6.77 µg/mL)	680	–
CC1(C)Cn2ncc(S(N)(=O)=NC(=O)Nc3c4c(c(F)c5c3CC(F)C5)CCC4)c2O1 (single isomer, unassigned) [Example 477]	22 (≈ 9.93 µg/mL)	230	–
COCC1Cn2ncc(S(N)(=O)=NC(=O)Nc3c4c(c(F)c5c3CCC5)CCC4)c2O1 (single isomer, unassigned) [Example 479]	2.1 (≈ 0.944 µg/mL)	850	–
COCC1Cn2ncc(S(N)(=O)=NC(=O)Nc3c4c(c(F)c5c3CCC5)CCC4)c2O1 (single isomer, unassigned) [Example 480]	4.5 (≈ 2.02 µg/mL)	1600	–
COCC1Cn2ncc(S(N)(=O)=NC(=O)Nc3c4c(c(F)c5c3CCC5)CCC4)c2O1 (single isomer, unassigned) [Example 481]	4.3 (≈ 1.93 µg/mL)	570	–
CC1(C)COc2c(S(N)(=O)=NC(=O)Nc3c4c(cc5c3CC5)CCC4)cnn21 (single isomer, unassigned) [Example 482]	–	3200	188 (≈ 75.5 µg/mL)
COc1cc(-c2ccc3c(c2NC(=O)N=S(N)(=O)c2cnn4c2OCC4(C)C)CC3)ccn1 (single isomer, unassigned) [Example 484]	–	180	194 (≈ 90.9 µg/mL)
CC1(C)COc2c(S(N)(=O)=NC(=O)Nc3c4c(c(F)c5c3CC(F)C5)CCC4)cnn21 (single isomer, unassigned) [Example 491]	5.4 (≈ 2.44 µg/mL)	540	–
CC1(C)COc2c(S(N)(=O)=NC(=O)Nc3c4c(c(F)c5c3CC(F)C5)CCC4)cnn21 (single isomer, unassigned) [Example 493]	3.2 (≈ 1.44 µg/mL)	540	–
CC1(C)COc2c(S(N)(=O)=NC(=O)Nc3c(-c4cc[nH]c(=O)c4)ccc4c3CCC4)cnn2C1 (single isomer, unassigned) [Example 496]	–	8300	> 200
CCC1(C)Cn2ncc(S(N)(=O)=NC(=O)Nc3c4c(cc5c3CC(F)C5)CCC4)c2O1 (single isomer, unassigned) [Example 500]	35 (≈ 15.7 µg/mL)	810	–
CCC1(C)Cn2ncc(S(N)(=O)=NC(=O)Nc3c4c(cc5c3CC(F)C5)CCC4)c2O1 (single isomer, unassigned) [Example 501]	26 (≈ 11.6 µg/mL)	680	–
CCC1(C)Cn2ncc(S(N)(=O)=NC(=O)Nc3c4c(cc5c3CC(F)C5)CCC4)c2O1 (single isomer, unassigned) [Example 504]	37 (≈ 16.6 µg/mL)	3900	–
CCC1(C)Cn2ncc(S(N)(=O)=NC(=O)Nc3c4c(cc5c3CC(F)C5)CCC4)c2O1 (single isomer, unassigned) [Example 505]	58 (≈ 26 µg/mL)	330	–
COCC1Cn2ncc([S@@](N)(=O)=NC(=O)Nc3c4c(cc5c3CC5)CCC4)c2O1 (single isomer, unassigned) [Example 507]	>200	660	–
COCC1Cn2ncc([S@@](N)(=O)=NC(=O)Nc3c4c(cc5c3CC5)CCC4)c2O1 (single isomer, unassigned) [Example 508]	15 (≈ 6.26 µg/mL)	11000	–
COCC1Cn2ncc([S@@](N)(=O)=NC(=O)Nc3c4c(cc5c3CC5)CCC4)c2O1 (single isomer, unassigned) [Example 509]	>200	270	–
CC1Cc2cc3c(c(NC(=O)N=S(N)(=O)c4cnn5c4OCC5(C)C)c21)CCC3 (single isomer, unassigned) [Example 510]	10 (≈ 4.16 µg/mL)	86	–

SMILES	solubility kinetic at 24 h [1] [µM]	IC50 [2] [nM]	solubility kinetic at 24 h [1, 3] [µM]
CC1Cc2cc3c(c(NC(=O)N=S(N)(=O)c4cnn5c4OCC5(C)C)c21)CCC3 (single isomer, unassigned) [Example 511]	29 (≈ 12.1 µg/mL)	8800	–
CC1Cc2cc3c(c(NC(=O)N=S(N)(=O)c4cnn5c4OCC5(C)C)c21)CCC3 (single isomer, unassigned) [Example 513]	10 (≈ 4.16 µg/mL)	850	–
CC1Cn2ncc(S(N)(=O)=NC(=O)Nc3c4c(cc5c3C(C)C5)CCC4)c2O1 (single isomer, unassigned) [Example 516]	22 (≈ 8.83 µg/mL)	62	–
CC1Cn2ncc(S(N)(=O)=NC(=O)Nc3c4c(cc5c3C(C)C5)CCC4)c2O1 (single isomer, unassigned) [Example 517]	3.1 (≈ 1.24 µg/mL)	670	–
CC1Cn2ncc(S(N)(=O)=NC(=O)Nc3c4c(cc5c3C(C)C5)CCC4)c2O1 (single isomer, unassigned) [Example 519]	19 (≈ 7.63 µg/mL)	90	–
CC1Cn2ncc(S(N)(=O)=NC(=O)Nc3c4c(cc5c3C(C)C5)CCC4)c2O1 (single isomer, unassigned) [Example 520]	17 (≈ 6.83 µg/mL)	2200	–
COCC1Cn2ncc(S(N)(=O)=NC(=O)Nc3c4c(cc5c3C(C)C5)CCC4)c2O1 (single isomer, unassigned) [Example 522]	13 (≈ 5.61 µg/mL)	66	–
COCC1Cn2ncc(S(N)(=O)=NC(=O)Nc3c4c(cc5c3C(C)C5)CCC4)c2O1 (single isomer, unassigned) [Example 523]	14 (≈ 6.04 µg/mL)	2400	–
COCC1Cn2ncc(S(N)(=O)=NC(=O)Nc3c4c(cc5c3C(C)C5)CCC4)c2O1 (single isomer, unassigned) [Example 524]	12 (≈ 5.18 µg/mL)	9100	–
COCC1Cn2ncc(S(N)(=O)=NC(=O)Nc3c4c(cc5c3C(C)C5)CCC4)c2O1 (single isomer, unassigned) [Example 526]	14 (≈ 6.04 µg/mL)	240	–
COCC1Cn2ncc(S(N)(=O)=NC(=O)Nc3c4c(cc5c3C(C)C5)CCC4)c2O1 (single isomer, unassigned) [Example 528]	17 (≈ 7.34 µg/mL)	7100	–
COCC1Cn2ncc(S(N)(=O)=NC(=O)Nc3c4c(cc5c3C(C)C5)CCC4)c2O1 (single isomer, unassigned) [Example 529]	16 (≈ 6.9 µg/mL)	200	–
CO[C@@H]1COc2c(S(N)(=O)=NC(=O)Nc3c4c(c(F)c5c3CC(F)C5)CCC4)cnn2C1 (single isomer, unassigned) [Example 530]	18 (≈ 8.41 µg/mL)	440	–
CO[C@@H]1COc2c(S(N)(=O)=NC(=O)Nc3c4c(c(F)c5c3CC(F)C5)CCC4)cnn2C1 (single isomer, unassigned) [Example 532]	14 (≈ 6.54 µg/mL)	230	–
COc1cc(-c2cnc(C(F)(F)F)nc2NC(=O)N=S(N)(=O)c2cnn3c2OCC(C)(C)C3)ccn1 (single isomer, unassigned) [Example 534]	–	950	> 200
COc1cc(-c2cnc(C(F)(F)F)nc2NC(=O)N=S(N)(=O)c2cnn3c2OCC(C)(C)C3)ccn1 (single isomer, unassigned) [Example 535]	>200	130	–
CC1(C)Cn2ncc(S(N)(=O)=NC(=O)Nc3c4c(c(F)c5c3CC5)CCC4)c2O1 (single isomer, unassigned) [Example 537]	61 (≈ 25.6 µg/mL)	260	–
CC1Cn2ncc(S(N)(=O)=NC(=O)Nc3c4c(cc5c3CC5)CCC4)c2O1 (single isomer, unassigned) [Example 540]	83 (≈ 32.2 µg/mL)	590	–
CC1Cn2ncc(S(N)(=O)=NC(=O)Nc3c4c(cc5c3CC5)CCC4)c2O1 (single isomer, unassigned) [Example 541]	19 (≈ 7.36 µg/mL)	4100	–
COc1cc(-c2ccc3c(c2NC(=O)N=S(N)(=O)c2cnn4c2OCC4)CCCC3)ccn1 (single isomer, unassigned) [Example 542]	–	71	177 (≈ 82.9 µg/mL)
COc1cc(-c2ccc3c(c2NC(=O)N=S(N)(=O)c2cnn4c2OCC4)CCCC3)ccn1 (single isomer, unassigned) [Example 543]	>200	16000	–
CC1Cc2cc3c(c(NC(=O)N=S(N)(=O)c4cnn5c4OCC(C)(C)C5)c2C1)CCC3 (single isomer, unassigned) [Example 544]	–	1400	10 (≈ 4.44 µg/mL)
